Like-named read-outs stand apart in the source and are kept apart here.
Columns and labels:
[1] = Cell growth assay (WST-8) (Compounds B1-B278); type: cell-based; details: T47D cell line, WST-8, 4 days, read-out: Cell Growth Inhibition in T47D cell line IC50
Description: Cell Growth Assay. The cells are seeded at certain concentration (e.g., at 1500/well) in multi-well plates overnight. Cells are subsequently treated with the compounds. A certain period of time (e.g., 4 days) after the compound treatment, 10% WST-8 reagent is added to the culture medium and incubate under certain condiction (e.g., in a CO2 incubator at 37° C. for 2.5 hours). The absorbance is measured on each sample using a microplate reader at certain wavelength (e.g., 450 nm). The relative absorbance is calculated against the vehicle control from three individually repeats.
Cell Growth Assay. The cells were seeded at 1500/well in 96 well plates overnight. One day after the seeding, they were treated with indicated doses of compounds respectively. 4 days after the compound treatment, 10% WST-8 reagent was added to the culture medium and incubate in a CO2 incubator at 37° C. for 2.5 hours. Before reading, the plate was mixed gently on an orbital shaker for one minute to ensure homogeneous distribution of color. The absorbance was measured of each sample using a microplate reader at a wavelength of 450 nm. The relative absorbance was calculated against the vehicle control from three individually repeats.

[2] = biological target: ER (Homo sapiens (Human), UniProt P03372); experiment: In-cell western blot analysis of relative ER percentage (Compounds B1-B278); type: cell-based; details: ER degradation, 16 hours, read-out: ICW DC50
Description: In-cell western blot analysis. Cells are seeded in multi-well plates (e.g., at 40,000 or 10,000 cells/well). Diluted compounds at certain concentration are added (final 0.5% DMSO) and cells are incubated for […] (e.g., 16 hours). Formaldehyde (e.g., PBS:FA=9:1) is added and followed by washing with PBS. The cells are blocked with Licor blocking buffer (Li-Cor). The relative ER percentage in treated cells are obtained by comparing the values of treated wells to those in untreated and DMSO-treated wells as 100%.
In-cell western blot analysis. a. seed cells in black-sided/clear bottom 96- or 384-well plates at 40,000 or 10,000 cells/well, overnight; b. add diluted compounds (final 0.5% DMSO), 16 hours. 16 h later, remove medium, add 100 μL or 25 μL of 3.7-4.0% formaldehyde (PBS:FA=9:1), RT 20 min, no shaking; c. wash with PBS, and permeabilized with 100 μL or 25 μL/well of 1×PBS+0.1% Triton X-100 10 minutes; d. block with 100 μL or 25 μL Licor blocking buffer (Li-Cor), RT 1 h, moderate shaking; d. Add 100 μL or 25 μL of anti-ER (cs-8644, 1:500-1,000)+GAPDH(Millipore MAB374, 1:1000) in Block+0.05% Tween 20. RT 2 h, gentle shaking. Negative control: cells plus secondary antibodies (no primary antibodies); e. wash×4 with PBS +0.05-0.1% Tween 20, gentel shaking; f. anti-rabbit-680 and anti-mouse-800 (both 1:1000 in LiCor block +0.05% Tween20, RT 1 h, gentle shaking, no light. LI-COR: 0.2% to reduce background; g. wash×4 with PBS+0.05% Tween 20, gental shaking; h. add 100 μL or 25 μL of PBS to each well and read on CLX plate reader. The relative ER percentage in treated cells were obtained by comparing the values of treated wells to those in untreated and DMSO-treated wells as 100%.

Chain of ER (P03372 whole entry): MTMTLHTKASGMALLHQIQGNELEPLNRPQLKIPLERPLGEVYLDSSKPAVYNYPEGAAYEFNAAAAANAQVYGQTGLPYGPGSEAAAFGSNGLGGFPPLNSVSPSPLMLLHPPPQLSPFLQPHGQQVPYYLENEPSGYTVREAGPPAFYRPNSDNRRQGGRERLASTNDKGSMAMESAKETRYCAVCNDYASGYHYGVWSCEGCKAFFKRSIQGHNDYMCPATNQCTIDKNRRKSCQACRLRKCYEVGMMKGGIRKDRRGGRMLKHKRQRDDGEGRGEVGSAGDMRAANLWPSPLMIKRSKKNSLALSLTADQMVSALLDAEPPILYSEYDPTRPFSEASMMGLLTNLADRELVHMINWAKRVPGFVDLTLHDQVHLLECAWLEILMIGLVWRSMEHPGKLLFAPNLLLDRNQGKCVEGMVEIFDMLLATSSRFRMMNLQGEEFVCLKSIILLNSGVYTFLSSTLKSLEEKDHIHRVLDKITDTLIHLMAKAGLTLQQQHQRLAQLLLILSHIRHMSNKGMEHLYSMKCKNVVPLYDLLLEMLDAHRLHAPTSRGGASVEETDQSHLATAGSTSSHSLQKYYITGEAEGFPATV

| Compound | IC50 [1] | DC50 [2] | IC50 ([1]; 96 h) |
| --- | --- | --- | --- |
| C[C@@H]1Cc2c([nH]c3ccccc23)[C@@H](c2c(F)cc(N3CCC(CN4CCN5c6ccc7c(c6OC[C@H]5C4)CN(C4CCC(=O)NC4=O)C7=O)CC3)cc2F)N1CC(C)(C)F (mixture of isomers) [Compound B259, 3-((RS)-7-((1-(3,5-difluoro-4-((1R,3R)-2-(2-fluoro-2-methylpropyl)-3-methyl-2,3,4,9-tetrahydro-1H-pyrido[3,4-b]indol-1-yl)phenyl)piperidin-4-yl)methyl)-1-oxo-1,3,5,5a,6,7,8,9-octahydro-2H-pyrazino[1′,2′:4,5][1,4]oxazino[2,3-e]isoindol-2-yl)piperidine-2,6-dione] | < 1 nM | > 100 nM | – |
| C[C@@H]1Cc2c([nH]c3ccccc23)[C@@H](c2cnc(N3CCC(OCCN4CCN5c6cc7c(cc6OC[C@@H]5C4)C(=O)N([C@H]4CCC(=O)NC4=O)C7)CC3)nc2)N1CC(F)F [Compound 1B24, (S)-3-((S)-3-(2-((1-(5-((1R,3R)-2-(2,2-difluoroethyl)-3-methyl-2,3,4,9-tetrahydro-1H-pyrido[3,4-b]indol-1-yl)pyrimidin-2-yl)piperidin-4-yl)oxy)ethyl)-8-oxo-1,2,3,4,4a,5,8,10-octahydro-9H-pyrazino[1,2′:4,5][1,4]oxazino[2,3-f]isoindol-9-yl)piperidine-2,6-dione] | – | 10 to 100 nM | 1 to 10 nM |
| C[C@@H]1Cc2c([nH]c3ccccc23)[C@@H](c2c(F)cc(-c3ncc(C(=O)N4CCN5c6cc7c(cc6OC[C@@H]5C4)C(=O)N([C@H]4CCC(=O)NC4=O)C7)cn3)cc2F)N1CC(F)F [Compound B117, (S)-3-((S)-3-(2-(4-((1R,3R)-2-(2,2-difluoroethyl)-3-methyl-2,3,4,9-tetrahydro-1H-pyrido[3,4-b]indol-1-yl)-3,5-difluorophenyl)pyrimidine-5-carbonyl)-8-oxo-1,2,3,4,4a,5,8,10-octahydro-9H-pyrazino[1′,2′:4,5][1,4]oxazino[2,3-f]isoindol-9-yl)piperidine-2,6-dione] | – | 10 to 100 nM | 1 to 10 nM |
| C[C@@H]1Cc2c([nH]c3ccccc23)[C@@H](c2c(F)cc(NC3CN(C(=O)CN4CCN5c6cc7c(cc6OC[C@@H]5C4)C(=O)N(C4CCC(=O)NC4=O)C7)C3)cc2F)N1CC(F)(F)CO (stereo partly drawn) [Compound B118, 3-((S)-3-(2-(3-((4-((1R,3R)-2-(2,2-difluoro-3-hydroxypropyl)-3-methyl-2,3,4,9-tetrahydro-1H-pyrido[3,4-b]indol-1-yl)-3,5-difluorophenyl)amino)azetidin-1-yl)-2-oxoethyl)-8-oxo-1,2,3,4,4a,5,8,10-octahydro-9H-pyrazino[1′,2′:4,5][1,4]oxazino[2,3-f]isoindol-9-yl)piperidine-2,6-dione] | – | 10 to 100 nM | 1 to 10 nM |
| C[C@@H]1Cc2c([nH]c3ccccc23)[C@@H](c2c(F)cc(C3CCN(C(=O)CN4CCN5c6cc7c(cc6OC[C@@H]5C4)C(=O)N(C4CCC(=O)NC4=O)C7)CC3)cc2F)N1CC(F)F (stereo partly drawn) [Compound B119, 3-((S)-3-(2-(4-(4-((1R,3R)-2-(2,2-difluoroethyl)-3-methyl-2,3,4,9-tetrahydro-1H-pyrido[3,4-b]indol-1-yl)-3,5-difluorophenyl)piperidin-1-yl)-2-oxoethyl)-8-oxo-1,2,3,4,4a,5,8,10-octahydro-9H-pyrazino[1′,2′:4,5][1,4]oxazino[2,3-f]isoindol-9-yl)piperidine-2,6-dione] | – | 10 to 100 nM | < 1 nM |
| C[C@@H]1Cc2c([nH]c3ccccc23)[C@@H](c2cnc(N3CC4(CCC(CN5CCN6c7cc8c(cc7OC[C@@H]6C5)C(=O)N(C5CCC(=O)NC5=O)C8)CC4)C3)nc2)N1CC(F)F (stereo partly drawn) [Compound B120, 3-((S)-3-((2-(5-((1R,3R)-2-(2,2-difluoroethyl)-3-methyl-2,3,4,9-tetrahydro-1H-pyrido[3,4-b]indol-1-yl)pyrimidin-2-yl)-2-azaspiro[3.5]nonan-7-yl)methyl)-8-oxo-1,2,3,4,4a,5,8,10-octahydro-9H-pyrazino[1′,2′:4,5][1,4]oxazino[2,3-f]isoindol-9-yl)piperidine-2,6-dione] | – | 10 to 100 nM | 1 to 10 nM |
| C[C@@H]1Cc2c([nH]c3ccccc23)[C@@H](c2cnc(N3CCC(CCN4CCN5c6cc7c(cc6OC[C@@H]5C4)C(=O)N(C4CCC(=O)NC4=O)C7)CC3)nc2)N1CC(F)F (stereo partly drawn) [Compound B121, 3-((S)-3-(2-(1-(5-((1R,3R)-2-(2,2-difluoroethyl)-3-methyl-2,3,4,9-tetrahydro-1H-pyrido[3,4-b]indol-1-yl)pyrimidin-2-yl)piperidin-4-yl)ethyl)-8-oxo-1,2,3,4,4a,5,8,10-octahydro-9H-pyrazino[1′,2′:4,5][1,4]oxazino[2,3-f]isoindol-9-yl)piperidine-2,6-dione] | – | < 10 nM | 1 to 10 nM |
| C[C@@H]1Cc2c([nH]c3ccccc23)[C@@H](c2cnc(N3CC[C@H](CCN4CCN5c6cc7c(cc6OC[C@@H]5C4)C(=O)N(C4CCC(=O)NC4=O)C7)C3)nc2)N1CC(F)F (stereo partly drawn) [Compound B122, 3-((S)-3-(2-((S)-1-(5-((1R,3R)-2-(2,2-difluoroethyl)-3-methyl-2,3,4,9-tetrahydro-1H-pyrido[3,4-b]indol-1-yl)pyrimidin-2-yl)pyrrolidin-3-yl)ethyl)-8-oxo-1,2,3,4,4a,5,8,10-octahydro-9H-pyrazino[1′,2′:4,5][1,4]oxazino[2,3-f]isoindol-9-yl)piperidine-2,6-dione] | – | 10 to 100 nM | 1 to 10 nM |
| C[C@@H]1Cc2c([nH]c3ccccc23)[C@@H](c2cnc(N3CCC(OCCN4CCN5c6cc7c(cc6OC[C@@H]5C4)C(=O)N([C@@H]4CCC(=O)NC4=O)C7)CC3)nc2)N1CC(F)F [Compound B123, (R)-3-((S)-3-(2-((1-(5-((1R,3R)-2-(2,2-difluoroethyl)-3-methyl-2,3,4,9-tetrahydro-1H-pyrido[3,4-b]indol-1-yl)pyrimidin-2-yl)piperidin-4-yl)oxy)ethyl)-8-oxo-1,2,3,4,4a,5,8,10-octahydro-9H-pyrazino[1′,2′:4,5][1,4]oxazino[2,3-f]isoindol-9-yl)piperidine-2,6-dione] | – | 10 to 100 nM | 1 to 10 nM |
| C[C@@H]1Cc2c([nH]c3ccccc23)[C@@H](c2cnc(N3CC4(CCC(CN5CCN6c7ccc8c(c7N(C)C[C@@H]6C5)CN(C5CCC(=O)NC5=O)C8=O)CC4)C3)nc2)N1CC(F)F (stereo partly drawn) [Compound B125, 3-((S)-7-((2-(5-((1R,3R)-2-(2,2-difluoroethyl)-3-methyl-2,3,4,9-tetrahydro-1H-pyrido[3,4-b]indol-1-yl)pyrimidin-2-yl)-2-azaspiro[3.5]nonan-7-yl)methyl)-4-methyl-1-oxo-3,4,5,5a,6,7,8,9-octahydropyrazino[1,2-a]pyrrolo[3,4-f]quinoxalin-2(1H)-yl)piperidine-2,6-dione] | – | 10 to 100 nM | > 10 nM |
| C[C@@H]1Cc2c([nH]c3ccccc23)[C@@H](c2cnc(N3CCC4(CC3)CC(CN3CCN5c6ccc7c(c6N(C)C[C@@H]5C3)CN(C3CCC(=O)NC3=O)C7=O)C4)nc2)N1CC(F)F (stereo partly drawn) [Compound B126, 3-((S)-7-((7-(5-((1R,3R)-2-(2,2-difluoroethyl)-3-methyl-2,3,4,9-tetrahydro-1H-pyrido[3,4-b]indol-1-yl)pyrimidin-2-yl)-7-azaspiro[3.5]nonan-2-yl)methyl)-4-methyl-1-oxo-3,4,5,5a,6,7,8,9-octahydropyrazino[1,2-a]pyrrolo[3,4-f]quinoxalin-2(1H)-yl)piperidine-2,6-dione] | – | 10 to 100 nM | > 10 nM |
| C[C@@H]1Cc2c([nH]c3ccccc23)[C@@H](c2cnc(N3CCC(CN4CCC5(CCOc6c5ccc5c6CN(C6CCC(=O)NC6=O)C5=O)CC4)CC3)nc2)N1CC(F)F (stereo partly drawn) [Compound B127, 3-(1-((1-(5-((1R,3R)-2-(2,2-difluoroethyl)-3-methyl-2,3,4,9-tetrahydro-1H-pyrido[3,4-b]indol-1-yl)pyrimidin-2-yl)piperidin-4-yl)methyl)-7′-oxo-2′,3′,7′,9′-tetrahydro-8′H-spiro[piperidine-4,4′-pyrano[2,3-e]isoindol]-8′-yl)piperidine-2,6-dione] | – | 10 to 100 nM | 1 to 10 nM |
